# Measured values from article PMC12040169 (PLOS Biology, 2025).
# Test: in vitro
# Conditions: human, hela cells
row,Compound,"viability at 28.5 h, 10 µM"
1,N#CC(CCCN1CCC(O)(c2ccccc2)CC1)(c1ccccc1)c1ccccc1 [CBK002145],105%

# Same assay, conditions: human, hela cells, % viability
row,Compound,"viability at 28.5 h, 10 µM"
1,O=C(O)c1cccc(Sc2cccc(C(F)(F)F)n2)c1 [CBK093592],98%
2,O=C(CN1CCN(Cc2ccccc2)CC1)Nc1cccc(Cl)c1 [CBK267850],113%
3,Cc1cc(C(F)(F)F)nc(NCc2ccco2)n1 [CBK269555],105%
4,COc1cccc(C(=O)Nc2nc(-c3ccc(S(=O)(=O)N4CCCC4)cc3)cs2)c1 [CBK096257],89%
5,CCCC(NC(=O)c1cccc(-n2cnnc2)c1)c1cccs1 (centres unmarked) [CBK282745],102%
6,N#CCCN(CC1CCCO1)S(=O)(=O)c1ccc(OC(F)(F)F)cc1 (centres unmarked) [CBK044405],91.5%
7,COc1ccc(OC[C@@H](N)C(C)C)cc1 [CBK284299],93.9%
8,Cc1nc(CCNC(=O)N(Cc2cnn(C)c2)C2CC2)nc2c1CCC2 [CBK307650],86.1%
9,O=C(NC1CC1)c1ccsc1NC(=O)C1C2C=CC(C2)C1C(=O)O (centres unmarked) [CBK270322],98.7%
10,Cn1cncc1C(=O)NC1CCCC1 [CBK200256],95.5%
11,CN(CC(=O)NCc1ccco1)C1CCCCC1 [CBK304471],85.6%
12,CCC1CCCCN1C(=O)c1ccc(C)c(OC)c1 (centres unmarked) [CBK081557],103%
13,CSCCN1CCCN(c2nccc(OCc3ccc(Cl)c(Cl)c3)n2)CC1 [CBK083960],70.5%
14,CC(=O)NC[C@H]1CN(c2ccc3c(c2)CCN(C(C)=O)CC3)C(=O)O1 [CBK018491],86.6%
15,Cc1ccc(NC(=O)COc2cccnc2)c(C)n1 [CBK200379],102%
16,O=C(O)CSc1nc(O)c2c(-c3ccccc3)csc2n1 [CBK268067],107%
17,Cc1ccc(S(=O)(=O)N2CCN(C(=O)CSc3nnc4sc5ccccc5n34)CC2)cc1 [CBK265961],90.5%
18,CC(NC(=O)C1CCN(CCn2cnc3c2c(=O)n(C)c(=O)n3C)CC1)c1ccccc1 (centres unmarked) [CBK148624],99.4%
19,CC(C)(C)C1CCc2c(sc(NC(=O)c3cccs3)c2C(N)=O)C1 (centres unmarked) [CBK307114],85.4%
20,CCCCOc1ccc(NC(=O)NCCC2=CCCCC2)cc1 [CBK043751],92.1%
21,O=C(Nc1ccc2c(O)cc(S(=O)(=O)O)cc2c1)Nc1ccc2c(O)cc(S(=O)(=O)O)cc2c1 [CBK278157N],91.1%
22,Cc1ccccc1OCc1nc(C#N)c(NCc2ccc3c(c2)OCO3)o1 [CBK073372],109%

row,Compound,"viability at 28.5 h, 10 µM"
1,CCn1c2cc(C)oc2c2cnn(CC(=O)N3CCCCC3)c(=O)c21 [CBK284220],90.2%
2,O=C(NCCc1ccc(O)cc1)c1ccc(-c2ccc(OC(F)(F)F)cc2)nc1 [CBK156224],95.8%
3,O=C(N/N=C/c1cc(O)c(Br)cc1Br)c1ccncc1 [CBK262297],76.8%
4,CCOC(=O)C1CCN(S(=O)(=O)c2ccc(C(C)C)cc2)CC1 [CBK200044],86.4%
5,Cc1csc(Sc2nccc(C(F)(F)F)n2)n1 [CBK093770],91.9%
6,O=C(c1ccncc1)N1CCCC1(CO)Cc1ccccc1 (centres unmarked) [CBK288620],96.5%
7,c1ncc(N2CCCC2)nc1OC1CCOC1 (centres unmarked) [CBK115893],91.3%
8,O=C(O)COc1cccc2nsnc12 [CBK019749],95.1%
9,O=C(CS(=O)(=O)c1ccccc1)Nc1ccc(OCc2ccccc2)cc1 [CBK269421],98.4%
10,COc1ccc(C(=O)[C@@H]2CCCC[C@H]2N)cc1 [CBK023040C],91.6%
11,COc1cccc(/C=N/N2C(=O)c3ccc([N+](=O)[O-])cc3NC2c2cccc(OC)c2O)c1O (centres unmarked) [CBK074439],91.3%
12,O=C(Nc1ccc(-c2ccc(NC(=O)c3ccncc3)cc2)cc1)c1ccncc1 [CBK262321],98.9%
13,CC1CN(C(=O)CCn2c(C(F)F)cc3cccnc32)CC(C)O1 (centres unmarked) [CBK284984],95.3%
14,Cc1ccc(NC(=O)COc2ccccc2/C=C/C(=O)O)cc1C [CBK287026],111%
15,O=C(Nc1ccccc1)N1C[C@@H]2C[C@H](C1)c1c(-c3cccnc3)ccc(=O)n1C2 [CBK289193],92.3%
16,Cc1ccc(OC(C)C(=O)N2CCCc3c(cnn3C)C2)cc1 (centres unmarked) [CBK282242],98.2%
17,Cc1cc2[nH]cc(C(=O)N3CCCC3c3ccco3)c(=O)n2n1 (centres unmarked) [CBK307390],82.9%
18,Cc1ccc(CNC(=O)OCCN2CCN(C)CC2)n1C [CBK200287],86.8%
19,COc1ccc2[nH]c3c(c2c1)CCN(C(C)=O)C31CCN(CCOc2ccccc2)C1 (centres unmarked) [CBK039626],85.5%
20,COc1ccc(Nc2ncnc3c2c(C)c(C)n3CCO)cc1 [CBK288161],102%
21,CN1CCC(=NNC(=O)CN(c2ccc(Oc3ccccc3)cc2)S(C)(=O)=O)CC1 [CBK262338],93.2%
22,CNC(=O)c1cccc(NC(=O)C(C)N(C)Cc2cnc(C)s2)c1 (centres unmarked) [CBK305735],81.5%

row,Compound,"viability at 28.5 h, 10 µM"
1,O=C(O)c1ccc(-c2cnc3ccccc3n2)cc1 [CBK288010],106%
2,Fc1ccc(OCc2nnn[nH]2)c(F)c1 [CBK269473],99.9%
3,CC(=O)Nc1ccc(NC(=O)c2cnc(-c3ccc(F)cc3)c(-c3ccco3)c2)cc1 [CBK037977],98.8%
4,O=C(NC(c1ccccc1)c1ccsc1)C1CCN(S(=O)(=O)c2cccc(Cl)c2)CC1 (centres unmarked) [CBK060188],97.7%
5,COc1cc(C2C(C#N)=C(N)OC3=C2C(=O)CC(c2ccccc2)C3)cc(Br)c1O (centres unmarked) [CBK261587],87.1%
6,CN(CCOc1ccc(Cl)cc1)C(=O)COc1cc2ccccc2cc1C(=O)O [CBK296720],108%
7,Cc1cccc(OCCCn2cncc2-c2cn(C)nc2C)c1 [CBK281766],90%
8,O=C(c1ccccc1)N1C[C@@H]2CCCCN(CC3CC3)[C@@H]2C1 [CBK285498],102%
9,COc1ccccc1-c1cc(Nc2ccc(NS(=O)(=O)c3ccc(C)cc3)cc2)ncn1 [CBK037819],113%
10,O=C(Nc1ccc2c(c1)OCO2)Nc1c(Br)cnc2ncccc12 [CBK105596],93.4%
11,Cc1ccc2[nH]c(CN3CCC(O)C3)cc(=O)c2c1 (centres unmarked) [CBK307690],91.5%
12,CCN1CCN(Cc2cc(Cl)ccc2OCCCn2ccnc2)CC1 [CBK306990],83.2%
13,O=S(=O)(Nc1nnc(C(F)(F)F)s1)c1ccc(Br)cc1 [CBK200047],89.6%
14,NC(=O)c1cccc(Cn2c3c(c4cccc(C(=O)O)c42)CCCCC3)c1 [CBK024834],98.6%
15,CCn1cnc2cc(NC(=O)C3CC4C=CC3C43CC3)ccc21 (centres unmarked) [CBK281384],73.8%
16,CCCNC(=O)Cn1cnc2sc(C(=O)Nc3ccc(OCC)cc3)c(C)c2c1=O [CBK071920],91.2%
17,CC(C)(C)C(=O)NC1(C(F)(F)F)N=C(c2ccccc2)NC1=O (centres unmarked) [CBK267475],88.7%
18,O=C(Nc1ccncc1)c1cnc2cc(C(F)(F)F)ccc2c1O [CBK116633T],92.1%
19,Cc1cccc(N(CC(O)CN2C(=O)NC(C)(C)C2=O)S(=O)(=O)c2ccccc2)c1 (centres unmarked) [CBK263582],103%
20,O=C(NCc1ccco1)/C(=C\c1ccccc1)NC(=O)c1ccc(Br)cc1 [CBK263701],87.7%
21,COc1ccc(NS(=O)(=O)c2cc(C(=O)O)c(Cl)cc2Cl)cc1 [CBK095077],89.7%
22,O=C(C1CCCC1)N1CCC(c2cccc(Cc3ccccc3Cl)n2)CC1 [CBK286507],87.6%

row,Compound,"viability at 28.5 h, 10 µM"
1,Cc1cn(S(=O)(=O)c2ccc(Br)cc2)cn1 [CBK026488],97.3%
2,Cc1cc(C(=O)Nc2ccc([C@@H](O)[C@H]3COCC(=O)N3Cc3ccccc3)cc2)n(C)n1 [CBK289669],89%
3,Cc1nccn1-c1ccc(NC(=O)c2ccn(C(F)F)n2)cc1 [CBK281410],110%
4,COc1ccc(-c2ccc(C(=O)N(C)C)c(N(C)C(C)=O)n2)cc1 [CBK076500],99.1%
5,COCCN(CCOC)C(=O)COc1c(Cl)cc(C(=O)O)cc1Cl [CBK296704],92.3%
6,Cn1cncc1CN(Cc1ccccn1)Cc1ccccc1Cl [CBK282129],105%
7,CC1CC1C(=O)NCC(=O)Nc1nc2ccc(OC(F)(F)F)cc2s1 (centres unmarked) [CBK297874],98.3%
8,O=C(NCc1cccs1)c1ccc2[nH]ccc2c1 [CBK149060],83.3%
9,CC1CC1C(=O)N1CCC(c2nc3ccccc3cc2N)CC1 (centres unmarked) [CBK285090],98.8%
10,CCOC(=O)Cn1c(CN2CCC(Cc3ccccc3)CC2)nc2c1c(=O)n(C)c(=O)n2C [CBK269454],89.8%
11,CCCc1nn(CC(=O)N2CCCC2)c(=O)c2cc3ccsc3n12 [CBK284145],85.5%
12,O=C(N[C@@H](Cn1cc(Cl)c(=O)[nH]c1=O)C(=O)O)c1cccc(F)c1 [CBK289650],118%
13,CC(C)CNc1ncc(-c2ccc(N3CCOCC3)cc2)n2ccnc12 [CBK091273],101%
14,c1nn(C2CCCCC2)cc1-c1cncn1CCCN1CCCCC1 [CBK281495],97.5%
15,CCOC(=O)c1sc(-c2ccc(C(C)(C)C)cc2)nc1O [CBK078538],92.3%
16,CCCN1CCc2c(sc3nc(SCC(=O)OC)nc(N)c23)C1 [CBK126911],96.6%
17,Cc1csc2c(C3CCCN(C(=O)C4CC4)C3)nc(C)n12 (centres unmarked) [CBK285212],87.1%
18,CN(C)CC(=O)Nc1cc(C(F)(F)F)ccc1Cl [CBK307420],87.2%
19,CS(=O)(=O)N1CC2(CCN(Cc3nc4ccccc4[nH]3)CC2)c2ccccc21 [CBK126672],89.2%
20,COC(=O)c1ccc(/C=N/NC(=O)CCc2c(C)n[nH]c2C)cc1 [CBK262904],117%
21,O=C(NCc1cccnc1)c1ccc2c(c1)C(=O)N(Cc1ccco1)C2=O [CBK269675],88.6%

# Same assay, conditions: human, hela cells, % viability, bulk resorufin, single well
row,Compound,"viability at 28.5 h, 10 µM"
1,c1ccc(-c2cccc3c2OC2(CCNCC2)OC3)cc1 [CBK061589],105%
